Data from US20220112149A1, “DRUG DESIGN METHOD ASSOCIATED WITH NATURAL PRODUCTS, PENTACYCLIC TRITERPENOID COMPOUND, PREPARATION METHOD AND APPLICATIONS THEREOF” (Huazhong Agricultural University, priority 2020, published 2022).
Entries after “also recorded” stand apart in the source; their conditions may differ.

Experiments:
[1] = system: high-fat-induced obese mice; test: GA-02 in high-fat-induced obese mouse model, intraperitoneal; format: in vivo, C57BL/6 mice
Experimental: Animals are fed with 60% calorie high-fat diets (purchased from Bio-medicine) for 14 consecutive weeks. […] When the blood glucose is greater than 11 mmol/L and the body weight is greater than 42 g, the administration is started. […] The injection volume is 25 μL per day. In addition, a vehicle (25 μL DMSO) and positive drug (Celastrol) control are established. […] Mice in the blank group and GA-02 treatment group underwent pathological anatomy, to observe the changes in organs before and after administration. Samples are taken to prepare pathological sections.
The models are constructed by feeding high-fat diets to C57BL/6 male mice for 14 weeks. Mice with body weight greater than 42 g and blood glucose higher than 11 mmol/L are obese model mice. Mice are grouped by blood glucose and body weight. Model mice in each group are given three doses of GA-02 (high-, medium-and low-doses, 4, 12, 20 mg/kg, 25 μL/day) by intraperitoneal injection for 14 consecutive days. Mice in the blank control group are given DMSO (25 μL/day) by intraperitoneal injection, and the food intakes and body weights are recorded every day.

[2] = system: Leptin-deficient ob/ob mice; test: GA-02 in ob/ob mice, intraperitoneal; format: in vivo; details: 20 mg/kg i.p.
Experimental: Eight-week-old male ob/ob and db/db mice are adapted to the environment under normal conditions for one week. The animals are grouped according to the body weight and blood glucose, 2 cages in each group, 5 animals in each cage. Mice are acclimatized with the vehicle for 3 days in the experimental group (25 μL DMSO/day) and are injected with drugs by intraperitoneal injection (20 mg/kg; 25 μL per injection). Mice in the control group are injected with the same volume of vehicle. The administration starts from 18:00 every day for 14 consecutive days. The body weight and food intake of mice are recorded every day.

[3] = system: NF-κB signaling in HEK293 cells; test: NF-κB luciferase reporter gene system; format: cell-based
Experimental: FIGS. 10A-10C show the inhibition verification effect chart of GA-02 in Example 5, where FIG. 10A: GA-02 inhibited LPS-induced ICAM-1 expression activity. The inflammatory pathway of HMEC-1 cell was activated by 1 μg/mL LPS, to determine the effect of Celastrol and GA-02 on the expression of ICAM-1 induced by LPS. FIG. 10B: The effect of GA-02 on NF-κB signaling. The NF-κB luciferase reporter plasmid was used to transfect HEK293 cells, and the effects of Celastrol and GA-02 on the NF-κB activity induced by TNF-α were determined; FIG. 10C: qRT-PCR was used to detect mRNA relative expressions of IL-1β, TNF-α, IL-6 and MCP-1.
ICAM-1 is a downstream effector molecule regulated by NF-κB signaling pathway, and NF-κB plays an important role in regulating the expression of ICAM-1 gene. Celastrol can inhibit the activation of the LPS-induced IKK/NF-κB signaling pathway. In order to validate that GA-02 functions through the IKK/NF-κB signaling pathway, we constructed an NF-κB luciferase reporter gene system to validate the inhibitory activity of Celastrol and GA-02 on the luciferase reporter gene. […] In addition, both Celastrol and GA-02 could down-regulate the mRNA transcription levels of inflammatory factors IL-1β, TNF-α, IL-6 and MCP-1 activated by LPS.

lean mice (about 22 g) = details: mouse, in vivo, ip
Experimental: The animal feeding and experiment method are as follows. Six-week-old SPF-grade C57BL/6 mice (purchased from Hubei Provincial Center for Disease Control and Prevention) are fed in SPF animal house at a room temperature of 22° C., 4 mice per cage. Animals are fed with ordinary mouse feeds (purchased from) for 2 consecutive weeks. Mice are free to take food and the padding is changed every two days, and the body weights and blood glucose are monitored every week. When the body weight reaches 22 g, the administration is started. The drug is dissolved in DMSO solvent and administered by intraperitoneal injection at an injection volume of 25 μL per day. In addition, a vehicle and positive drug control are established. The food intake and body weight changes of mice in each group are measured every day.

mildly obese mice = test: GA-02 in mildly obese mouse model, intraperitoneal; format: in vivo, C57BL/6 mice
Experimental: The animal feeding and experiment method are as follows. […] The food intake and body weights of mice in each group are measured every day.

[4] = high-dose (20 mg/kg) i.p., second day
[5] = high-dose (20 mg/kg) i.p., third day
[6] = low-, medium- and high-dose (4, 12, 20 mg/kg) i.p.
[7] = low-, medium- and high-dose (4, 12, 20 mg/kg) i.p., 14 days

Compound: CC1(C(=O)O)CCC2(C)CCC3(C)C(=CC(=O)C4C5(C)C=C(O)C(=O)C(C)(C)C5CCC43C)C2C1 (stereo not shown) [GA-02, 3,11-dicarbonyl-1,12-diene-2-hydroxy-oleanane-30 carboxylic acid]
- accumulated fats in the visceral tissues ([1]; after administration for two weeks, dissection): completely dissipated
- average daily food intake decreased compared to the vehicle control group ([1]; first week, high dose 20 mg/kg i.p.): 63.2%
- average daily food intake ([1]; first week, high dose 20 mg/kg i.p., vehicle 2.31±0.18 g): 0.85 ± 0.23 g
- average daily food intake decreased compared to the vehicle control group ([1]; first week, low dose 4 mg/kg i.p.): 20.8%
- average daily food intake ([1]; first week, low dose 4 mg/kg i.p., vehicle 2.31±0.18 g): 1.83 ± 0.28 g
- average daily food intake decreased compared to the vehicle control group ([1]; first week, medium dose 12 mg/kg i.p.): 27.3%
- average daily food intake ([1]; first week, medium dose 12 mg/kg i.p., vehicle 2.31±0.18 g): 1.68 ± 0.35 g
- body weight reduced by ([1]; high dose 20 mg/kg i.p., 14 days): 26.42±0.73%
- body weight two weeks after administration ([1]; high dose 20 mg/kg i.p., 14 days, from 42.14±1.37 g): 30.07 ± 1.23 g
- lipid droplets in the liver (oil red O and H&E staining) ([1]; high-dose (20 mg/kg) i.p.): completely disappeared
- liver function indexes AST and ALT vs vehicle control group ([1]; high-dose (20 mg/kg) i.p.): significantly lower
- average daily food intake ([1]; high-dose (20 mg/kg) i.p., first day of administration, day 0: 2.0±0.18 g): 0.60 ± 0.02 g
- body weight ([1]; high-dose (20 mg/kg) i.p., first day, from 42.09±0.42 g): 40.98 ± 0.57 g
- average daily food intake [1, 4]: 0.47 ± 0.16 g
- body weight [1, 4]: 39.94 ± 0.62 g
- average daily food intake [1, 5]: 0.39 ± 0.11 g
- body weight [1, 5]: 39.23 ± 0.71 g
- blood glucose tolerance (GTT) and insulin tolerance (ITT) ([1]; high-dose administration group): significantly improved
- effect on suppressing appetite and reducing body weight (summary) ([1]; intraperitoneal injection, obese mice): strong effect
- body weight reduced by ([1]; low dose 4 mg/kg i.p., 14 days): 9.88±2.37%
- body weight two weeks after administration ([1]; low dose 4 mg/kg i.p., 14 days, from 42.50±1.71 g): 38.46 ± 0.95 g
- fat contents vs obese model mice (NMR body fat quantitative analysis) [1, 6]: significantly lower
- lean body masses (NMR body fat quantitative analysis) [1, 6]: no significant change
- fasting blood glucose level [1, 7]: reduce to a normal level; also recorded: return to the normal levels
- weights of liver and epididymal fat compared to the vehicle control group [1, 7]: decrease in a dose-dependent manner
- body weight reduced by ([1]; medium dose 12 mg/kg i.p., 14 days): 13.15±2.73%
- body weight two weeks after administration ([1]; medium dose 12 mg/kg i.p., 14 days, from 41.41.±1.17 g): 35.45 ± 1.15 g
- average daily food intake decreased compared to the vehicle control group ([1]; second mention of 'first week', high dose 20 mg/kg i.p.): 68.8%
- average daily food intake ([1]; second mention of 'first week', high dose 20 mg/kg i.p., vehicle 2.47±0.13 g): 0.70 ± 0.16 g
- average daily food intake decreased compared to the vehicle control group ([1]; second mention of 'first week', low dose 4 mg/kg i.p.): 37.2%
- average daily food intake ([1]; second mention of 'first week', low dose 4 mg/kg i.p., vehicle 2.47±0.13 g): 1.55 ± 0.12 g
- average daily food intake decreased compared to the vehicle control group ([1]; second mention of 'first week', medium dose 12 mg/kg i.p.): 45.3%
- average daily food intake ([1]; second mention of 'first week', medium dose 12 mg/kg i.p., vehicle 2.47±0.13 g): 1.35 ± 0.18 g
- food intake compared with the blank vehicle group ([2]; 14 days): reduced, but it is not significant
- overall decrease in body weight ([2]; 14 days): not significant
- body weight increase ([2]; in the first five days, later dropped to the initial body weight): 10%
- inhibition of NF-κB reporter fluorescence compared with Celastrol ([3]; 10 μM): equivalent to that of 1 μM Celastrol
- inhibition of the fluorescence intensity, concentration dependence ([3]; different concentrations): concentration-dependent manner
- body weights (lean mice (about 22 g)): no decrease but an upward trend
- effect on the food intake and body weight (summary) (lean mice (about 22 g)): no effect
- food intakes compared to the vehicle control group (lean mice (about 22 g)): no significant change
- food intake and body weight vs vehicle control group (mildly obese mice; high-dose i.p., mild obesity group, body weight of about 28 g): significantly lower
- effect on suppressing appetite and reducing body weight (summary) (mildly obese mice; intraperitoneal injection, mildly obese mice): significant effect
